Assay: in vitro
Conditions: human, hela cells, % viability

Compound	viability at 28.5 h, 10 µM
CCCOc1ccc(Cc2nnn[nH]2)cc1 [CBK262590]	83.9%
COc1ccc(C(=O)NNC(=O)c2cccc(O)c2)cc1 [CBK262594]	118%
CCCN1CCC(=NNC(=O)c2c[nH]c3ccccc23)CC1 [CBK262597]	95.3%
COC(=O)c1cn(C(=O)COc2ccc(Cl)cc2)c2ccccc12 [CBK262598]	87%
NC(=O)c1ccccc1NC(=O)COc1ccccc1 [CBK262599]	85.1%
O=C(Nc1ccc(O)cc1)c1ccc(N2C(=O)c3cccc([N+](=O)[O-])c3C2=O)cc1 [CBK262600]	89.8%
O=C(O)CCC(=O)Nc1ccc(Br)cc1C(=O)c1ccc(Cl)cc1 [CBK262601]	86.7%
O=C(NCCCN1CCOCC1)c1ccccc1Br [CBK262602C]	106%
COC(=O)c1c(NC(=O)C(Sc2ccccc2)c2ccccc2)sc2c1CCC(C(C)(C)C)C2 (stereo not shown) [CBK262603]	105%
COC(=O)CNC(c1cc(Br)ccc1N)c1ccccc1Cl (stereo not shown) [CBK262605]	89%
COc1cc(C(=O)NC(C)C(=O)NN)cc(OC)c1OC (stereo not shown) [CBK262609]	106%
COc1ccccc1OCC(=O)NNC(=O)c1cnccn1 [CBK262617]	109%
C/C(CC(=O)Nc1ccc(C)cc1)=N\NC(=O)c1cccc(O)c1 [CBK262618]	104%
COc1ccc(OCC(=O)NNC(=O)c2cnccn2)cc1 [CBK262619]	98.1%
CC(=O)C1=C(C)NC(SCC(=O)c2ccc(C)cc2)=C(C#N)C1c1ccco1 (stereo not shown) [CBK262623]	109%
CC(=O)C1=C(C)NC(SCC(=O)c2ccc(F)cc2)=C(C#N)C1c1sccc1C (stereo not shown) [CBK262624]	95.6%
CC(C)N1CCC(=NNC(=O)c2cc(O)c(O)c(O)c2)CC1 [CBK262626]	117%
Cc1cc(NS(=O)(=O)c2ccc(NC(=O)c3cc(-c4ccc(C)o4)nc4ccccc34)cc2)nc(C)n1 [CBK262628]	93.9%
CCC1CCc2c(sc(NC(=O)c3cc(-c4ccc(C)cc4C)nc4ccccc34)c2C(=O)OC)C1 (stereo not shown) [CBK262629]	89.2%
COc1cccc(-c2cc(C(=O)NCCCN3CCOCC3)c3ccccc3n2)c1 [CBK262630]	91.7%
NC(=O)c1c(NC(=O)/C=C/c2c(F)cccc2Cl)sc2c1CCCCCC2 [CBK262631]	98.2%
O=C(c1cc(-c2cccc(Br)c2)nc2ccccc12)N1CCN(C/C=C/c2ccccc2)CC1 [CBK262633]	100%

Compound	viability at 28.5 h, 10 µM
Cc1c(-c2ccc(Cl)cc2Cl)nc2ccccc2c1C(=O)NCCCc1ccccc1 [CBK262635]	89.4%
COC(=O)c1c(NC(=O)c2ccncc2)sc2c1CCC2 [CBK262637]	88.1%
O=C(c1ccc2c(c1)OCO2)N1CCN(C/C=C/c2ccccc2)CC1 [CBK262639]	105%
COc1cccc(-c2cc(C(=O)Nc3nnn[nH]3)c3ccccc3n2)c1 [CBK262640]	98.6%
O=C(O)CC(NS(=O)(=O)c1cccc([N+](=O)[O-])c1)c1ccccc1 (stereo not shown) [CBK262641]	96.4%
Cc1cc(C)cc(NC(=O)C2C3C=CC(O3)C2C(=O)O)c1 (stereo not shown) [CBK262642]	95.3%
COC(=O)c1c(NC(=O)c2c(C)c(-c3ccc(Cl)cc3Cl)nc3ccccc23)sc2c1CCC(C)C2 (stereo not shown) [CBK262644]	82.9%
CCOC(=O)c1c(NC(=O)CCC(=O)O)sc2c1CCCCC2 [CBK262648]	100%
CCC1CCc2c(sc(NC(=O)c3cnccn3)c2C(N)=O)C1 (stereo not shown) [CBK262649]	105%
COc1ccc(/C=C/C(=O)Nc2cc(S(N)(=O)=O)ccc2C)cc1 [CBK262651]	102%
CCOC(=O)c1c(NC(=O)c2cc(-c3ccc(Cl)s3)nc3ccccc23)sc(C)c1CC [CBK262657]	107%
O=c1c2c(nc(SCCc3ccccc3)n1CCc1ccccc1)-c1ccccc1CC21CCCCC1 [CBK262661]	86.8%
CC12CN3CC(C)(CN(C1)C3c1ccc(O)cc1)C2O (stereo not shown) [CBK262663]	107%
Cc1cc(NN(Cc2ccccc2)Cc2ccccc2)n2c(nc3ccccc32)c1C#N [CBK262666]	96.9%
O=C1c2ccc(OCCOc3ccc4c(c3)C(=O)N(c3ccc(O)cc3)C4=O)cc2C(=O)N1c1ccc(O)cc1 [CBK262668]	91.3%
CC1=NN(c2ccc([N+](=O)[O-])cc2)C(=O)/C1=C/NCc1ccc(S(N)(=O)=O)cc1 [CBK262670]	111%
CC(NCCCN(C)C)=C1C(=O)c2ccccc2C1=O [CBK262674]	81.6%
CC(Nc1cccc2ccccc12)C(=O)N/N=C/c1ccc([N+](=O)[O-])cc1 (stereo not shown) [CBK262676]	84.2%
COc1cc(Nc2cccc3c2C(=O)c2ccccc2C3=O)c(OC)cc1C=O [CBK262677]	109%
CC(Nc1cccc2ccccc12)C(=O)N/N=C/c1c(O)ccc2ccccc12 (stereo not shown) [CBK262678]	97.5%
CCOc1ccc2c(c1)-c1c(ssc1=S)C(C)(C)N2C(=O)CSc1nnc[nH]1 [CBK262680]	98.6%
Cc1ccc2c(c1)-c1c(ssc1=S)C(C)(C)N2C(=O)COc1nc2ccccc2s1 [CBK262682]	88%

Compound	viability at 28.5 h, 10 µM
CCOC(=O)/C(C#N)=C(\O)c1ccc(N2C(=O)c3ccc(C(=O)O)cc3C2=O)cc1 [CBK262683]	91.8%
CCOc1ccc(-c2c3c(c(-c4ccccc4)n2-c2ccc(N)cc2)C(=O)c2ccccc2C3=O)cc1 [CBK262685]	40%
COc1cc(C2Nc3ccccc3-c3nc(SC)nnc3O2)ccc1OCC(=O)O (stereo not shown) [CBK262687]	94.3%
CC(NCCN1CCOCC1)=C1C(=O)c2ccccc2C1=O [CBK262691]	96.1%
CC(NCc1ccc(S(N)(=O)=O)cc1)=C1C(=O)c2ccccc2C1=O [CBK262692]	87%
COc1cccc(NC(=O)C2CN(S(=O)(=O)c3ccccc3)CCN2S(=O)(=O)c2ccccc2)c1 (stereo not shown) [CBK262694]	85.9%
Nc1ccc(-n2c(-c3ccccc3)c3c(c2-c2ccc(Cl)cc2)C(=O)c2ccccc2C3=O)cc1 [CBK262695]	87.3%
Cc1ccc2c(c1)N(C(=O)COc1nc3ccccc3s1)C(C)(C)c1ssc(=S)c1-2 [CBK262696]	97.7%
O=C(O)Cn1cc(I)c(=O)[nH]c1=O [CBK262698]	98.6%
O=C(CSc1nc2ccccc2c(=O)n1Cc1ccccc1)c1ccc(Br)cc1 [CBK262700]	93.4%
Nc1ncnc(NCCc2ccccc2)n1 [CBK262701]	85%
NC(=O)C[N+]1(CC#CC(O)(c2ccccc2)c2ccccc2)CCCC1 [CBK262703I]	95.3%
CNCCOCC(O)CSc1ccccc1 (stereo not shown) [CBK262704]	100%
Cc1ccc(/N=N/N(CC(O)C(O)C(O)CO)c2ccc(C)c(C)c2)cc1C (stereo not shown) [CBK262705]	90%
O=C(c1ccccc1)c1ccc2[nH]c(-c3ccc(NC(=O)c4ccccc4Cl)cc3)nc2c1 [CBK262706]	83.7%
CCOC(=O)CC1=C(C(=O)OCC)C(c2ccccc2C(F)(F)F)C(C#N)=C(N)O1 (stereo not shown) [CBK262710]	105%
CS(=O)(=O)N(Cc1ccccc1)c1ccc(C(=O)N/N=C/c2ccccc2C(F)(F)F)cc1 [CBK262711]	88%
O=C(N/N=C/c1cccnc1)C1CCCN(S(=O)(=O)c2ccccc2)C1 (stereo not shown) [CBK262712]	91.5%
Cc1cc(C)c(OCCNC(C)(C)C)c(Cl)c1 [CBK262713C]	93.2%
O=C(O)CC(Cc1ccc(Br)cc1)C(=O)Nc1ccccc1 (stereo not shown) [CBK262714]	96.2%
COc1cccc(OC)c1OCCCN1CCCCC1 [CBK262719]	97.7%
CC(=O)Nc1ccc(/C(C)=N/NC(=O)c2ccc(CN3CCOCC3)cc2)cc1 [CBK262720]	91.7%

Compound	viability at 28.5 h, 10 µM
O=C(N/N=C/c1cc2c(cc1Br)OCO2)c1ccc(CN2CCOCC2)cc1 [CBK262721]	90.1%
N#Cc1c(NC(=O)c2ccc(C(=O)O)cc2C(=O)O)sc2c1CCCC2 [CBK262722]	105%
O=C(CSc1ccc(Cl)cc1)Nc1ccc(S(=O)(=O)N2CCOCC2)cc1 [CBK262723]	95%
Cc1c(C(=O)O)cccc1N1C(=O)c2ccc([N+](=O)[O-])cc2C1=O [CBK262724]	99.9%
Cc1[nH]nc(Nc2cccc(C(=O)O)c2)c1[N+](=O)[O-] [CBK262725]	96.2%
OC(CN1CCN(C(c2ccccc2)c2ccccc2)CC1)Cn1c2ccccc2c2ccccc21 (stereo not shown) [CBK262730]	99.6%
Cc1ccc2nc(Cl)c(/C=N/NC(=O)CN3CCOCC3)cc2c1 [CBK262731]	91.2%
C=CCn1c(SCC(=O)O)nnc1-c1ccc([N+](=O)[O-])cc1 [CBK262736]	88.6%
C=C(C)Cn1c(SCC(=O)O)nnc1-c1ccccc1 [CBK262737]	91.9%
O=[N+]([O-])c1ccc2c(c1)C(N1CCOCC1)/C(=C/COc1ccc3ccccc3c1Br)O2 (stereo not shown) [CBK262738]	97.1%
O=[N+]([O-])c1ccc(O)c(C(C#Cc2ccccc2)N2CCOCC2)c1 (stereo not shown) [CBK262741]	93.2%
CN1CCC(=NNC(=O)c2ccc(N(Cc3ccccc3)S(C)(=O)=O)cc2)CC1 [CBK262742]	82.4%
CC(=O)Nc1cccc(/C(C)=N/NC(=O)c2ccc(CN3CCOCC3)cc2)c1 [CBK262746]	95.4%
Cc1ccc(C(=O)O)cc1N1C(=O)c2ccc(S(=O)(=O)c3ccc(C(=O)O)cc3)cc2C1=O [CBK262747]	96.1%
C/C(CCc1ccccc1)=N\NC(=O)c1ccc(CN2CCOCC2)cc1 [CBK262752]	99.5%
Clc1ccc(OC/C=C2\Oc3ccc(Cl)cc3C2N2CCOCC2)c(Cl)c1 (stereo not shown) [CBK262753]	94.5%
CS(=O)(=O)N(Cc1ccccc1)c1ccc(C(=O)Nc2ccc(-c3ccccc3)cc2)cc1 [CBK262754]	90.6%
Cc1ccc(N2C(=O)/C(=C/c3ccc(O)c(O)c3)SC2=S)cc1C [CBK262756]	76.8%
CCOc1cc(/C=C2\SC(=S)N(NC(=O)c3cccnc3)C2=O)ccc1O [CBK262759]	105%

— publication PMC12040169 (PLOS Biology, 2025)
